Values of other authors, collected in patent US11013684B2, “Body fluid expanders comprising N-substituted aminosulfonic acid buffers” (AQIX, Ltd., priority 2007, dated 2021).

How the values were obtained:
[1] = for −ΔpKa/° C.: aqueous solution, 20° C.
cultured mammalian cells = conditions: long term studies

−ΔpKa/° C. [1]	pKa @ 20° C. ([1]; aqueous solution at 20° C.)	SMILES	toxicity to cultured mammalian cells (cultured mammalian cells)
0.021	–	O=C(O)CNC(CO)(CO)CO [TRICINE, N-tris(hydroxymethyl) methylglycine]	–
0.016	–	O=S(=O)(O)CCN(CCO)CCO [BES, N,N-bis (2-hydroxyethyl)-2-aminoethanesulfonic acid]	non-toxic
0.018	–	O=C(O)CN(CCO)CCO [BICINE, N,N-bis (2-hydroxyethyl) glycine]	–
0.009	6.80	O=S(=O)(O)CCN1CCN(CCS(=O)(=O)O)CC1 [PIPES, piperazine-N,N′-bis(2-ethanesulfonic acid)]	–
